Test [1] has as its system c-Jun and c-Fos (subunits of the transcription factor AP-1). Kind of test: Western blot of transcription factors in MM cell lines. The format is cell-based, human. Conditions: MM1.S and RPMI-8226 (two of four lines); 1 and 2.5 μM, 48 h. How it is done: (§1) Western Blot Analysis Cells were collected and centrifuged at 1200 rpm for 5 minutes at 4° C. Cells were washed with PBS and lysed in ice-cold lysis buffer [140 mmol/L NaCl, 10 mmol/L EDTA, 10% glycerol, 1% NP40, 20 mmol/L Tris (pH 7), 1 μMol/L pepstatin, 1 μg/mL aprotinin, 1 μg/mL leupeptin, 1 mmol/L sodium orthovanadate]. Samples were centrifuged at 10,000×g at 4° C. for 10 minutes, and supernatants were transferred to new tubes and western blots were performed following standard procedures. CD38 and anti-α-tubulin primary antibodies used in Western blot analyses were obtained from Cell Signaling (Boston, MA, USA). The horseradish peroxidase-conjugated secondary antibodies were from GE Healthcare (Chicago, IL, USA).
(§2) To determine the mechanism by which EDO-S101 increases CD38 expression, the expression of the transcription factors NF-κB, AP-1 and IRF-1 which are known to be involved in regulating the expression of CD38 was evaluated. Treatment with EDO-S101 (1 and 2.5 μM) for 48 h increased the expression of c-Jun and c-Fos (subunits of the transcription factor AP-1) in two (MM1.S and RPMI-8226) of the four myeloma cell lines tested (FIG. 5). Additionally, EDO-S101 increased IRF-1 expression in the MOLP-8 cell line (FIG. 5).

Test [2] concerns IRF-1. The description is as above. The format is cell-based, human. Particulars: MOLP-8 cell line; 1 and 2.5 μM, 48 h. How it is done:
as §1, §2

The subject of test [3] is CD38. The test can be described thus: CD38 expression on primary myeloma cells from patients ex vivo, flow cytometry. The format is cell-based, human. Conditions: 2.5 μM, 48 hours; 3 out of 11 patients (low basal expression); not observed with high basal CD38. How it is done:
(§3) For surface staining, cells were incubated with the appropriate antibodies and 7AAD (Immunostep) for 15 min in the dark. Data were acquired using a FACSCalibur cytometer (BD Biosciences) and analyzed using Infinicyt™ software (Cytognos). Specifically, the expression of CD38 or ligands for NK cell activating receptors (MICA, MICB, ULBP1-3, PVR and CD112) in MM cell lines was determined on the viable cell population (7AAD-). In primary myeloma cells, the expression of CD38 was analyzed over the viable myeloma population using the panel CD138-FITC/CD56-PE/7AAD/CD38-APC, whereas MICA/B-AF488/CD56-PE/7AAD/CD38-APC panel was used to determine MICA/B expression. Normalized median fluorescence intensity (MFI) was calculated by dividing median fluorescence obtained with the specific antibody by median fluorescence of the corresponding isotype control. MFI for each treatment was expressed as a percentage relative to the control (100%, cells cultured in media with DMSO).
CD38 expression was further examined by flow cytometry in malignant plasma cells from ex vivo cultures of 11 MM patients' bone marrow samples treated with tinostamustine (2.5 μM) for 48 hours.

The test system of test [4] is JJN3. The test can be described thus: Percentage of viable MM cells after treatment. Particulars: Homo sapiens, JJN-3, read-out: percentage of viable cells. The format is cell-based. How it is done:
(§4) Cell Treatment with EDO-S101 MM cells (MM1S, JJN3, KMS12-BM, RPMI-8226, U266, MOLP-8) were either treated with a control (0 μM EDO-S101, DMSO vehicle) or treated with EDO-S101 (0.1, 0.5, 1 or 2.5 μM in DMSO) for 48 hours, unless indicated otherwise.

For test [5], the system named is MOLP-8. The test can be described thus: Percentage of viable MM cells after treatment. Type of test: cell-based. Conditions: Homo sapiens, MOLP-8, read-out: percentage of viable cells. How it is done:
as §4

Test [6] relates to MICA mRNA. Kind of test: MICA mRNA by RT-qPCR in MM cell lines. The format is cell-based, human. Particulars: four MM cell lines tested; 1 and 2.5 μM, 36 hours (MOLP-8 6 hours). How it is done:
(§5) Real time quantitative PCR (RT-qPCR) Total RNA was isolated using the RNeasy Mini Kit (Qiagen, Hilden, Germany). Following reverse transcription, PCR was performed using TaqMan Gene Expression Assays (Applied Biosystems, Foster City, CA, USA): CD38 (Hs01120071_m1), MICA (Hs00741286_m1), MICB (Hs00792952_m1) and GAPDH (Hs99999905_m1). The results were expressed as fold change relative to expression of the target gene in control cells, using endogenous expression of GAPDH for normalization.

Test [7] concerns ULBP1. Kind of test: Surface expression of NK cell activating ligands by flow cytometry. Type of test: cell-based, human. Particulars: MM cell lines tested; not basally expressed; data not shown. How it is done: as §3
MM cells (JJN3, MM1.S, RPMI-8226, MOLP-8) were treated with EDO-S101 (1 and 2.5 μm) for 48 hours in accordance with the methods outlined above. After incubation, expression of several ligands for NK cell activating receptors: MICA, MICB, ULBP1, ULPB2, ULPB3, CD155 (PVR) and CD112 (Nectin-2) were measured using flow cytometry. Flow cytometry was then performed in accordance with the methods outlined above to calculate.

The subject of test [8] is CD38 mRNA. The test can be described thus: CD38 mRNA by RT-qPCR in MM cell lines. Type of test: cell-based, human. Conditions: MM1.S, JJN3, RPMI-8226; 1 and 2.5 μM, 36 hours. How it is done:
as §5

Test [9] deals with CD38 expressed on MM cells. The test can be described thus: Daratumumab binding to myeloma cells pre-treated with EDO-S101, flow cytometry. The format is cell-based, human. Particulars: JJN3, RPMI-8226, MOLP-8; EDO-S101 1 or 2.5 μM 48 h, then daratumumab 10 μg/ml. How it is done: Evaluation of daratumumab binding to myeloma cells To evaluate daratumumab binding to myeloma cells, MM cell lines were first pre-treated with tinostamustine (1 or 2.5 μM) or DMSO for 48 hours. Then cells were washed to remove tinostamustine or DMSO from the culture medium, and daratumumab (10 μg/ml) was added and incubated for 30 minutes. After that time, cells were washed with PBS twice and incubated during 30 additional minutes with anti-human-IgG1-AlexaFluor488 (Invitrogen, Carlsbad, CA, USA). Cells were acquired in a FACSCalibur cytometer and normalized MFI was calculated as described above.
Flow cytometry was used to analyse the binding of daratumumab to MM cells pre-treated with EDO-S101. The anti-human-IgG1-Alexa Fluor 488 (Invitrogen, Carlsbad, CA, USA) antibody recognizes and binds daratumumab's Fc region and, therefore, it can be detected using flow cytometry.
MM cells (JJN3, MM1.S, RPMI-8226, MOLP-8) were treated with EDO-S101 (1 μM or 2.5 μM) in accordance with the general methods outlined above. Following treatment, the cells were washed with PBS, and incubated at 37° C. for 30 minutes with 10 μg/ml daratumumab. Cells were then washed with PBS, anti-human-IgG1-Alexa Fluor 488 was added, and the cells were incubated at 37° C. for a further 30 minutes. […]

Structures are written as SMILES.

`Cn1c(CCCCCCC(=O)NO)nc2cc(N(CCCl)CCCl)ccc21` [EDO-S101, 7-(5-(bis(2-chloroethyl)amino)-1-methyl-1H-benzo[d]imidazol-2-yl)-N-hydroxyheptanamide]: the “expression of c-Jun and c-Fos” value in test [1] is “increased”. In [2], the IRF-1 expression entry is “increased”. Moreover, the “CD38 expression in primary myeloma cells” value in test [3] is “slightly increased”. Further, the values for the viability at 2.5 µM in [4] and in test [5] were 55.5% and 25.6%, respectively. Moreover, the “expression of MICA at the mRNA level” value in [6] is recorded as “increased”. For the same molecule, the ULBP1 expression entry in test [7] is “did not change”. In test [8], the “CD38 expression at the transcriptional level (qPCR)” value is listed as “increased”. Moreover, the “binding of daratumumab to MM cells (normalized MFI)” value in test [9] is given as “increases”.

(Values after patent publication US20240252472A1, “COMBINATIONS FOR TREATING CANCER” (Purdue Pharma L.P., priority 2023, published 2024).)
